Here are results for 19 molecules from patent US20250281424A1 (New York Blood Center, Inc, priority 2020, published 2025).

The target in the test is T1, human PF4 (Homo sapiens, UniProt P02776).
T1 construct: PF4 is a 70 amino acid, lysine-rich 7.8 kDa platelet-specific protein; made in house; host or cells: Escherichia coli BL21DE3 pLysS (pT7-7) and/or Drosophila S2 cells
T1 sequence (P02776 32-101): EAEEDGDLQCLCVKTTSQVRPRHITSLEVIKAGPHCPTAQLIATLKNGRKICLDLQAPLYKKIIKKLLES
Briefly: Inhibition of PF4 tetramer formation (BS3 cross-linking, SDS-PAGE). The format is biochemical. The note with it: for inhibition at 1 µM: 1 μM inhibitor; for inhibition at 1 µM / inhibition at 3 µM / inhibition at 5 µM / inhibition at 10 µM: read-out: % inhibition of PF4 tetramer formation at single concentration of inhibitor; for inhibition at 3 µM: 3 μM inhibitor (column A); for inhibition at 5 µM: 5 μM inhibitor; for inhibition at 10 µM: 10 μM inhibitor (column A); for IC50: read-out: IC50 of PF4 tetramer formation inhibition. Put shortly: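 Recombinant human wild-type PF4 (E. coli-expressed, heparin-purified), 10 μg/ml in PBS, incubated with compound 15 min at 37° C or 60 min at room temperature, then cross-linked with 0.2 mM BS3 for 30 min at room temperature. Reducing 12% SDS-PAGE; bands quantified as % tetramer, trimer, dimer, monomer versus compound-free control.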

Structures are written as SMILES.

As usually defined, the IC50 is the concentration that gives 50% inhibition.

For the molecule `CC[C@H](C)[C@H](NC(=O)C1C(=O)c2ccc(S(=O)(=O)c3ccc4c(c3)C(=O)C(C(=O)N[C@H](C(=O)OC)[C@@H](C)CC)C4=O)cc2C1=O)C(=O)OC` (stereo partly drawn) [Example 333, methyl (2S,3S)-2-({5-[(2-{[(2S,3S)-1-methoxy-3-methyl-1-oxopentan-2-yl]carbamoyl}-1,3-dioxo-2,3-dihydro-1H-inden-5-yl)sulfonyl]-1,3-dioxo-2,3-dihydro-1H-inden-2-yl}formamido)-3-methylpentanoate], the inhibition at 1 µM was 15% and the inhibition at 3 µM is 21%.
Regarding `CC(=O)c1cccc(NC(=O)C2C(=O)c3ccc(C(=O)c4ccc5c(c4)C(=O)C(C(=O)Nc4cccc(C(C)=O)c4)C5=O)cc3C2=O)c1` (stereo not drawn) [Example 103, N-(3-acetylphenyl)-5-{2-[(3-acetylphenyl)carbamoyl]-1,3-dioxo-2,3-dihydro-1H-indene-5-carbonyl}-1,3-dioxo-2,3-dihydro-1H-indene-2-carboxamide], the inhibition at 5 µM amounted to 66%, the inhibition at 10 µM was 77% and the half-maximal inhibitory concentration (IC50) stood at 500 nM.
`O=C(c1ccc2c(c1)C(=O)C(C(=O)C1CC1)C2=O)c1ccc2c(c1)C(=O)C(C(=O)C1CC1)C2=O` (stereo not drawn) [Example 401]: the inhibition at 1 µM amounted to 22% and the inhibition at 3 µM worked out at 23%.
Take `O=C(c1ccc2c(c1)C(=O)C(C(=O)C1CCC1)C2=O)c1ccc2c(c1)C(=O)C(C(=O)C1CCC1)C2=O` (stereo not drawn) [Example 299, 2-cyclobutanecarbonyl-5-(2-cyclobutanecarbonyl-1,3-dioxo-2,3-dihydro-1H-indene-5-carbonyl)-2,3-dihydro-1H-indene-1,3-dione]: the inhibition at 1 µM worked out at 32% and the inhibition at 3 µM is 56%.
The matching figures for `O=C(NCC1CCS(=O)(=O)C1)C1C(=O)c2ccc(Oc3ccc4c(c3)C(=O)C(C(=O)NCC3CCS(=O)(=O)C3)C4=O)cc2C1=O` (stereo not drawn) [Example 367, N-[(1,1-dioxo-1λ^6-thiolan-3-yl)methyl]-5-[(2-{[(1,1-dioxo-1λ^6-thiolan-3-yl)methyl]carbamoyl}-1,3-dioxo-2,3-dihydro-1H-inden-5-yl)oxy]-1,3-dioxo-2,3-dihydro-1H-indene-2-carboxamide]: 30% and 77%.
Regarding `CCNC(=O)C1C(=O)c2ccc(C(=O)c3ccc4c(c3)C(=O)C(C(=O)NCC)C4=O)cc2C1=O` (stereo not drawn) [Example 335, N-ethyl-5-[2-(ethylcarbamoyl)-1,3-dioxo-2,3-dihydro-1H-indene-5-carbonyl]-1,3-dioxo-2,3-dihydro-1H-indene-2-carboxamide], the inhibition at 1 µM amounted to 23% and the inhibition at 3 µM was determined as 39%.
The matching figures for `COCCOCCOCCNC(=O)C1C(=O)c2ccc(C(=O)c3ccc4c(c3)C(=O)C(C(=O)NCCOCCOCCOC)C4=O)cc2C1=O` (stereo not drawn) [Example 388, N-{2-[2-(2-methoxyethoxy)ethoxy]ethyl}-5-[2-({2-[2-(2-methoxyethoxy)ethoxy]ethyl}carbamoyl)-1,3-dioxo-2,3-dihydro-1H-indene-5-carbonyl]-1,3-dioxo-2,3-dihydro-1H-indene-2-carboxamide]: 23% and 31%.
`COCCOCCOCCNC(=O)C1C(=O)c2ccc(Oc3ccc4c(c3)C(=O)C(C(=O)NCCOCCOCCOC)C4=O)cc2C1=O` (stereo not drawn) [Example 384, N-{2-[2-(2-methoxyethoxy)ethoxy]ethyl}-5-{[2-({2-[2-(2-methoxyethoxy)ethoxy]ethyl}carbamoyl)-1,3-dioxo-2,3-dihydro-1H-inden-5-yl]oxy}-1,3-dioxo-2,3-dihydro-1H-indene-2-carboxamide]: the inhibition at 1 µM turned out to be 4% and the inhibition at 3 µM amounted to 9%.
Take `CC(C)(C)CC(=O)NCC(=O)C1C(=O)c2ccc(C(=O)c3ccc4c(c3)C(=O)C(C(=O)CNC(=O)CC(C)(C)C)C4=O)cc2C1=O` (stereo not drawn) [Example 185, N-[2-(5-{2-[2-(3,3-dimethylbutanamido)acetyl]-1,3-dioxo-2,3-dihydro-1H-indene-5-carbonyl}-1,3-dioxo-2,3-dihydro-1H-inden-2-yl)-2-oxoethyl]-3,3-dimethylbutanamide]: the inhibition at 5 µM was 89%, the inhibition at 10 µM is 94% and the IC50 turned out to be 4400 nM.
The matching figures for `CC(=O)NCC(=O)C1C(=O)c2ccc(S(=O)(=O)c3ccc4c(c3)C(=O)C(C(=O)CNC(C)=O)C4=O)cc2C1=O` (stereo not drawn) [Example 175, N-[2-(5-{[2-(2-acetamidoacetyl)-1,3-dioxo-2,3-dihydro-1H-inden-5-yl]sulfonyl}-1,3-dioxo-2,3-dihydro-1H-inden-2-yl)-2-oxoethyl]acetamide]: 90%, 97% and 1100 nM.
Consider `N[C@@H](C(=O)C1C(=O)c2ccc(S(=O)(=O)c3ccc4c(c3)C(=O)C(C(=O)[C@H](N)c3ccccc3)C4=O)cc2C1=O)c1ccccc1` (stereo partly drawn) [Example 172, 2-[(2R)-2-amino-2-phenylacetyl]-5-({2-[(2R)-2-amino-2-phenylacetyl]-1,3-dioxo-2,3-dihydro-1H-inden-5-yl}sulfonyl)-2,3-dihydro-1H-indene-1,3-dione], for which the inhibition at 5 µM was found to be 81%, the inhibition at 10 µM was determined as 93% and the half-inhibitory concentration (IC50) was found to be 1600 nM.
As for `CC(C)OCC(=O)C1C(=O)c2ccc(S(=O)(=O)c3ccc4c(c3)C(=O)C(C(=O)COC(C)C)C4=O)cc2C1=O` (stereo not drawn) [Example 379, 5-({1,3-dioxo-2-[2-(propan-2-yloxy)acetyl]-2,3-dihydro-1H-inden-5-yl}sulfonyl)-2-[2-(propan-2-yloxy)acetyl]-2,3-dihydro-1H-indene-1,3-dione], the inhibition at 1 µM turned out to be 43%, the inhibition at 3 µM is 68% and the IC50 stood at 660 nM.
In the case of `COCCOCCN(CC(=O)C1C(=O)c2ccc(S(=O)(=O)c3ccc4c(c3)C(=O)C(C(=O)CN(CCOCCOC)C(=O)OC(C)(C)C)C4=O)cc2C1=O)C(=O)OC(C)(C)C` (stereo not drawn) [Example 392, tert-butyl N-{2-[5-({2-[2-(11,11-dimethyl-9-oxo-2,5,10-trioxa-8-azadodecan-8-yl)acetyl]-1,3-dioxo-2,3-dihydro-1H-inden-5-yl}sulfonyl)-1,3-dioxo-2,3-dihydro-1H-inden-2-yl]-2-oxoethyl}-N-[2-(2-methoxyethoxy)ethyl]carbamate], the inhibition at 1 µM amounted to 1% and the inhibition at 3 µM was 1%.
For the molecule `Cc1ccccc1C(=O)CCC(=O)C1C(=O)c2ccc(S(=O)(=O)c3ccc4c(c3)C(=O)C(C(=O)CCC(=O)c3ccccc3C)C4=O)cc2C1=O` (stereo not drawn) [Example 254, 2-[4-(2-methylphenyl)-4-oxobutanoyl]-5-({2-[4-(2-methylphenyl)-4-oxobutanoyl]-1,3-dioxo-2,3-dihydro-1H-inden-5-yl}sulfonyl)-2,3-dihydro-1H-indene-1,3-dione], the inhibition at 1 µM was found to be 28% and the inhibition at 3 µM was found to be 51%.
As for `CC(C)(C)OC(=O)N[C@@H](Cc1ccccc1)C(=O)C1C(=O)c2ccc(C(=O)c3ccc4c(c3)C(=O)C(C(=O)[C@H](Cc3ccccc3)NC(=O)OC(C)(C)C)C4=O)cc2C1=O` (stereo partly drawn) [Example 157, tert-butyl N-[(2S)-1-(5-{2-[(2S)-2-{[(tert-butoxy)carbonyl]amino}-3-phenylpropanoyl]-1,3-dioxo-2,3-dihydro-1H-indene-5-carbonyl}-1,3-dioxo-2,3-dihydro-1H-inden-2-yl)-1-oxo-3-phenylpropan-2-yl]carbamate], the inhibition at 5 µM stood at 100%, the inhibition at 10 µM worked out at 100% and the half-inhibitory concentration (IC50) was 1200 nM.
In the case of `O=C(c1ccc2c(c1)C(=O)C(C(=O)[C@@H]1CCNC1)C2=O)c1ccc2c(c1)C(=O)C(C(=O)[C@H]1CCCN1)C2=O` (stereo partly drawn) [Example 349, 5-{1,3-dioxo-2-[(3R)-pyrrolidine-3-carbonyl]-2,3-dihydro-1H-indene-5-carbonyl}-2-[(2R)-pyrrolidine-2-carbonyl]-2,3-dihydro-1H-indene-1,3-dione], the inhibition at 1 µM was 2% and the inhibition at 3 µM stood at 27%.
In the case of `COCCNC(=O)C1C(=O)c2ccc(S(=O)(=O)c3ccc4c(c3)C(=O)C(C(=O)NCCOC)C4=O)cc2C1=O` (stereo not drawn) [Example 73, 5,5′-sulfonylbis(n-(2-methoxyethyl)-1,3-dioxo-2,3-dihydro-1h-indene-2-carboxamide)], the inhibition at 5 µM turned out to be 0% and the inhibition at 10 µM was 0%.
`CC(C)(C)OC(=O)N1C[C@H](F)C[C@H]1C(=O)C1C(=O)c2ccc(C(=O)c3ccc4c(c3)C(=O)C(C(=O)[C@@H]3C[C@@H](F)CN3C(=O)OC(C)(C)C)C4=O)cc2C1=O` (stereo partly drawn) [Example 113, tert-butyl (2S,4R)-2-(5-{2-[(2S,4R)-1-[(tert-butoxy)carbonyl]-4-fluoropyrrolidine-2-carbonyl]-1,3-dioxo-2,3-dihydro-1H-indene-5-carbonyl}-1,3-dioxo-2,3-dihydro-1H-indene-2-carbonyl)-4-fluoropyrrolidine-1-carboxylate]: the inhibition at 5 µM stood at 68%, the inhibition at 10 µM amounted to 86% and the half-maximal inhibitory concentration (IC50) worked out at 5400 nM.
Take `CO[C@@H](C)C(=O)C1C(=O)c2ccc(C(=O)c3ccc4c(c3)C(=O)C(C(=O)[C@H](C)OC)C4=O)cc2C1=O` (stereo partly drawn) [Example 236, 2-[(2S)-2-methoxypropanoyl]-5-{2-[(2S)-2-methoxypropanoyl]-1,3-dioxo-2,3-dihydro-1H-indene-5-carbonyl}-2,3-dihydro-1H-indene-1,3-dione]: the inhibition at 1 µM was 20% and the inhibition at 3 µM was determined as 25%.
